Assay: Human HepG2 cell viability assay in 384 well format
Assay type: toxicity, cell-based
Design: dose 125 nL, time 70.5 hour; cytotoxicity at 70.5 h: concentration not given beside the values
Settings: HepG2 cells, read-out: Inhibition

In order of rising cytotoxicity at 70.5 h:
1. COc1cccc(N2Cc3nc(=O)n(Cc4cccc(F)c4)n3C2=O)c1  -20.7%
2. CCc1c(C(=O)N2CC[C@H](N3CCOCC3)[C@H](CCCO)C2)csc1C  -20.4%
3. COc1ccc(C(=O)NS(=O)(=O)c2cncc(Br)c2)cc1  -16.9%
4. Cc1cnc(CN2CCN(c3nc(C)cs3)C(C)C2)cn1 (centres undefined)  -16.4%
5. Cc1cnn(CCNCC(=O)NC(c2ccccc2)c2ccccc2)c1  -16%
6. CN(Cc1cccnc1)C1CC2(CCN(c3ncccn3)CC2)C1  -15.1%
7. NC(=O)CN1CCC(C(=O)NCc2ccc3nonc3c2)CC1  -14.2%
8. Cn1ccnc1CN1CCC(CCCc2ccccn2)(C(N)=O)CC1  -13.4%
9. Cn1ncc(C(=O)N2CCOCC2)c1Cl  -13.1%
10. CN(c1ncnc2ccccc12)C1CCCN(c2cccnn2)C1 (centres undefined)  -12.6%
11. CN1CCN(C(=O)Cn2nc(C(F)(F)F)c(Br)c2C2CC2)CC1  -10.9%
12. CCCn1c(C)cc(C(=O)CN2C(=O)c3ccccc3CS2(=O)=O)c1C  -10.8%
13. CN(C)C1CC2(CCN(C(=O)C3(C#N)CC3)CC2)c2ccccc21 (centres undefined)  -10.7%
14. O=C(Cc1nc(-c2ccncc2)n[nH]1)NCCCN1CCOCC1  -10.7%
15. CC(C)CN1CC(O)CN(S(=O)(=O)c2ccccc2)CC1=O (centres undefined)  -10.6%
16. O=C(c1cnccn1)N1CCN2C[C@H](OCc3ccccn3)C[C@H]2C1  -10.5%
17. COc1ccc(CN(C)C2CCN(C(=O)C(C)C)CC2)c2cccnc12  -10.3%
18. CCn1c(NCc2ccccc2)nc2c(C)nn(C)c2c1=O  -9.48%
19. Cc1nc(COC[C@]23COC[C@H]2CN(Cc2ccoc2)C3)cs1  -9.47%
20. Cc1ccc(C(=O)Cc2c(Cl)nc3n(C)c(=O)n(C)c(=O)n23)cc1  -9.41%
21. Cc1nc(CCNC(=O)NC2CCCc3c2cnn3CCO)cs1 (centres undefined)  -9.35%
22. Cc1ccc2[nH]c(CN(C)c3cc(CCN)nc(C)n3)nc2c1  -8.93%
23. CC(NC(=O)CSCC(N)=O)c1ccc(Oc2ccccc2)cc1 (centres undefined)  -8.85%
24. CC(=O)Nc1ncc(S(=O)(=O)Nc2cccc(F)c2)s1  -8.84%
25. COCc1nn(C(C)C)c2c1CCN(Cc1ccc(C)s1)C2  -8.69%
26. CCn1nc(C)c2nc(C(C)C)nc(NCC(C)C)c21  -8.62%
27. O=C(c1ccc2c(c1)OCCCO2)N1CCCC(n2ccnc2)C1 (centres undefined)  -8.38%
28. CC1(C)Cc2ccccc2-c2nc(NCCO)[nH]c(=O)c21  -8.18%
29. Cc1cnc(NC(=O)C(C)Oc2ccc3c(c2)OCO3)s1 (centres undefined)  -7.91%
30. COCC(O)CN(C)C(=O)NC1CCN(S(C)(=O)=O)CC1 (centres undefined)  -7.83%
31. CC1(NC(=O)CNC(=O)C(C)(C)C)CCc2ccccc2C1 (centres undefined)  -7.61%
32. CCN(Cc1nc2c(cnn2C)c(=O)[nH]1)Cc1cccs1  -7.33%
33. CCOCCN1Cc2ncn(C)c2C(COCC2CCOCC2)C1 (centres undefined)  -7.05%
34. Cc1nc(CCC(=O)NCC(N)=O)cc(C2CCNCC2)n1  -6.67%
35. O=C(c1ccc2c(c1)OCO2)N1CCCC(n2cccn2)C1 (centres undefined)  -6.41%
36. c1cnn(CC2CCCCN2c2ncnc3sccc23)c1 (centres undefined)  -6.33%
37. Cc1cc(N2CCOC(c3ccc(N(C)C)cn3)C2)nc(N)n1 (centres undefined)  -6.31%
38. Cc1c(Cl)c(CN2CCCC2Cn2cncn2)nc2ccccc12 (centres undefined)  -6.2%
39. CNC(=O)[C@@H]1COC[C@H]2CN(C(=O)c3ccc(C)c(F)c3)C[C@H]21  -6.14%
40. CN(C)S(=O)(=O)N1CCN(c2cc(-n3cccc3)ncn2)CC1  -6%
41. O=C(CCc1ccsc1)NCc1ccnc(OC2CCOCC2)c1  -5.9%
42. Cn1ccc(CN2CCCC23CCNCC3)n1  -5.64%
43. CCc1ccc(NS(=O)(=O)CC2=NC(=O)n3cccc3C2=O)cc1  -5.39%
44. COC(=O)c1sccc1S(=O)(=O)NCCc1ccoc1  -5.25%
45. CCn1nc(C)c2ccn(CC(=O)NCCN3CCCCC3)c(=O)c21  -5.13%
46. CCc1cc(N2CCCC(c3noc(CC)n3)C2)ncn1 (centres undefined)  -5.13%
47. O=C(NCc1nnc2n1CCC2)c1ccc(C2CCCO2)s1 (centres undefined)  -4.87%
48. CCCS(=O)(=O)N1CCC2(CCC(=O)N(Cc3ccccc3)C2)CC1  -4.86%
49. c1ncc2c(n1)CN(Cc1nc(-c3ccc4c(c3)OCO4)no1)CC2  -4.3%
50. O=C(NCc1nnc2n1CCCC2)N1CCc2sccc2C1  -4.27%
51. Cc1csc(C2CCCCN2C(=O)COCc2nc(C)no2)n1 (centres undefined)  -4.26%
52. NCC(c1cccnc1)N1CCOCC1 (centres undefined)  -4.26%
53. Cc1ccc(N2Cc3cnn(Cc4ccc(F)cc4)c3C2)nn1  -4.14%
54. COc1cc(C)nc(N2CCN(C(=O)COC3CCCC3)CC2)n1  -4.07%
55. Cc1ccc(CC(=O)N2CCc3nnc(N(C)C)cc3C2)s1  -4.06%
56. CCC(NCc1ccccn1)c1ccccc1OCC(=O)NC (centres undefined)  -3.93%
57. COCCN1C[C@@H]2[C@@H](OC)CCN(Cc3ccco3)[C@@H]2C1  -3.76%
58. CN(C)c1ccccc1C(=O)N1C[C@@H](CN2CCCCC2)[C@@H](CO)C1  -3.58%
59. Cc1nc(O)cc(C2CCN(C(=O)CN(C)c3ccccc3)CC2)n1  -3.24%
60. c1cc(CN2CCCC23CCCN(Cc2ccoc2)C3)ccn1 (centres undefined)  -3.1%
61. CCCNC(=O)CNc1ccc(C(=O)N2CCCCC2C)cc1C (centres undefined)  -2.88%
62. CC(C)N1CCN(CCn2cnc3c(F)cccc3c2=O)CC1  -2.82%
63. O=C(Cn1ccc2ccc(Cl)cc21)/N=c1\[nH]nc(C2CCCO2)s1 (centres undefined)  -2.63%
64. COc1cccc(N2CCN(C(=O)CO)CC2=O)c1  -2.57%
65. COc1nccnc1N1CCC2(CC1)C(=O)N(C)c1ccccc12  -2.17%
66. Cn1ccc(CN2CCCC23CCN(Cc2nccn2C)CC3)n1  -2.05%
67. O=C([C@@H]1C[C@@H]2CCN(Cc3ccoc3)C[C@H]2O1)N1CCCC1  -2.05%
68. N#Cc1cc(Br)ccc1NC1CCN(CC(N)=O)CC1  -2.02%
69. CC(NC(=O)c1cccs1)C(=O)NCc1ccccc1CN1CCCC1 (centres undefined)  -2%
70. CC(C)C1SCC(=O)Nc2c1cnn2-c1ccc(F)cc1 (centres undefined)  -1.99%
71. Cc1cc(NCCCC(F)(F)F)n2nc(C)cc2n1  -1.87%
72. COc1ccc(/C=C/CN2CCN(c3ncccc3C(N)=O)CC2)cc1  -1.81%
73. O=C(Cc1ccccn1)N1CCN(C(=O)CC2CCCC2)CC1  -1.56%
74. CC(=O)NCC(=O)N1CCC2(CC1)NC(=O)CC2c1cccnc1 (centres undefined)  -1.28%
75. COC(=O)[C@H](C)NC(=O)Cn1ccc2ccc(F)cc21  -1.25%
76. Cc1ccc2c(c1)C1(CCN(C(N)=O)CC1)CN2CC1CC1  -1.07%
77. Cc1nc(C)n(C2CCCN(C(=O)COCc3ccccc3)C2)n1 (centres undefined)  -0.931%
78. Cc1ncc(CNC(=O)NCc2c(F)cccc2OC(F)F)s1  -0.321%
79. CC(=O)NC1CCN(c2c(C#N)cnc3c(C)cc(F)cc23)CC1  0.242%
80. CN(C)c1nc(N)nc(CN2CCCC2c2cccs2)n1 (centres undefined)  0.514%
81. Cc1cc(-c2ccc(C(=O)O)cc2)nc(C2CCN(C(C)C)CC2)n1  0.538%
82. Cc1ccc2c(c1)CN(C(=O)C1CCCCC1)C(CN(C)C)CO2 (centres undefined)  0.565%
83. O=C(NC1CCS(=O)(=O)C1)c1sccc1OC(F)F (centres undefined)  0.608%
84. Cc1cc(CCC(=O)Nc2nncs2)nc(C2CCCN2)n1 (centres undefined)  1.25%
85. CN1CCN(Cc2nc3c(s2)CCCC3)[C@H]2CS(=O)(=O)C[C@H]21  1.26%
86. O=C1COc2ccc(S(=O)(=O)NCC3CCCO3)c3c2N1CCC3 (centres undefined)  1.71%
87. O=C(c1ncn2c1CNS(=O)(=O)c1ccccc1-2)N1CC=CC1  1.87%
88. O=S(=O)(Nc1cnc(N2CCOCC2)nc1)c1ccc(C(F)(F)F)cc1  2.45%
89. COC(=O)NCCC(=O)NC(C)Cc1cccc(Br)c1 (centres undefined)  2.65%
90. O=C(NCc1ccccc1)N1Cc2nc(COCC3CC3)oc2C1  4.6%
91. CCc1cnc(CN(C)C2CCN(CC3CCOCC3)C2)o1 (centres undefined)  4.66%
92. COc1ccc2[nH]c3c(N(C)CC4OCCO4)ncnc3c2c1  5.81%
93. CCC(CC)NC(=O)c1ccc2nnc(C3CCN(C(C)=O)C3)n2c1 (centres undefined)  5.94%
94. CCn1ncc2c1C(COCC1CC1)CN(C(=O)c1cccs1)C2 (centres undefined)  6.27%
95. c1ccn(Cc2nnc3n2CCCN(Cc2ccoc2)C3)c1  6.46%
96. CCN1CCc2[nH]cnc2C12CCN(C(=O)CCc1cccs1)CC2  6.97%
97. CCN(CC)c1ncc(CNCC2CCCn3ccnc32)s1 (centres undefined)  8.16%
98. CC1CCN(C(=O)C(C)Oc2ccc3c(c2)OCO3)CC1 (centres undefined)  8.31%
99. Cc1cccc(C2(O)CCN(C(=O)c3ccc(N(C)C)cc3)CC2)c1C  9.92%
100. Cc1csc(CNc2cnc3c(c2)c(C)nn3C)n1  12.8%
101. COC(=O)Cn1c(=O)nc2n1C(=O)N(c1ccc(C)cc1)C2  13.2%
102. CN(C)c1cc2c(nn1)CCN(C(=O)C1CCc3ccccc31)C2 (centres undefined)  13.5%
103. CCOCC(=O)Nc1nccn1Cc1ccccc1Cl  13.6%
104. CC(=O)N1CCN(c2ccccc2CNc2cc(F)cc(F)c2)CC1  13.8%
105. CC1CCN(S(=O)(=O)NCc2ccccc2Cn2cccn2)CC1  14.5%
106. Cc1nccc(C2(C)CCCNC2)n1 (centres undefined)  16.5%
107. O=C(c1ccc(CN2CCCCC2)cc1)N1Cc2cnn(CCO)c2C1  19.3%
108. Cc1nc(C)c(C(C)NCc2cnc(N3CCOCC3)nc2)s1 (centres undefined)  19.8%
109. Fc1ccc(OCCNC2CCN(Cc3ccccn3)CC2)c(F)c1  20.2%
110. COc1ncccc1C(Cc1ccsc1)NC(=O)Cn1cccnc1=O (centres undefined)  22.1%
111. Cn1c(CN2CCCC(Cn3cncn3)C2)nc2ccccc21 (centres undefined)  28.9%
112. CS(=O)(=O)c1ccc(CNC(=O)N2CCC(C(N)=O)C2)cc1 (centres undefined)  30%
113. CC(C)(CNC(=O)C1CCCCN1S(C)(=O)=O)N1CCOCC1 (centres undefined)  38%
114. Cc1noc(C)c1CN1CCCC2(CCN(C(=O)CC3CC3)C2)C1 (centres undefined)  41.6%

Reference: ChEMBL document CHEMBL3507680, “University of Dundee, Gates Library screen for HepG2 cell viability”
